Laboratory results reported in patent US9527851B2, “Pyrrole six-membered heteroaryl ring derivative, preparation method thereof, and medicinal uses thereof” (Jiangsu Hengrui Medicine Co., Ltd., priority 2011, dated 2016).

Assays:
[1] = molecular target: JAK3 kinase (Homo sapiens (Human), UniProt P52333); assay: Assay for inhibiting JAK3 kinase (in vitro kinase assay, HRP anti-phosphotyrosine antibody/TMB absorbance); assay type: biochemical; settings: 50 minutes at room temperature; read-out: IC50 (JAK3/Bio)
Experimental: In vitro activity of compounds of the present invention for inhibiting JAK3 kinase was determined by the following method.

[2] = molecular target: JAK2 kinase (Homo sapiens (Human), UniProt O60674); assay: Assay for inhibiting JAK2 kinase (in vitro kinase assay, HRP anti-phosphotyrosine antibody/TMB absorbance); assay type: biochemical; settings: 20 μM ATP, 50 minutes at room temperature; read-out: IC50 (JAK2/Bio)
Experimental: In vitro activity of compounds of the present invention for inhibiting JAK2 kinase was determined by the following method.

[3] = molecular target: JAK1 kinase (Homo sapiens (Human), UniProt P23458); assay: Assay for inhibiting JAK1 kinase (in vitro kinase assay, HRP anti-phosphotyrosine antibody/TMB absorbance); assay type: biochemical; settings: 20 μM ATP, 50 minutes at room temperature; read-out: IC50 (JAK1/Bio)
Experimental: In vitro activity of compounds of the present invention for inhibiting JAK1 kinase was determined by the following method.
IC50 values of test compounds was calculated from the data of the test compounds in inhibiting the activity of JAK1 kinase at different concentrations.

[4] = Pharmacokinetics assay in rats, intragastric administration, plasma by LC/MS/MS; assay type: in vivo, Sprague-Dawley (SD) rats; settings: both sexes, Sprague-Dawley, rat, plasma, po, SD rats, 10 mg/kg; for Vd/F: read-out: Apparent Distribution Volume Vz/F; for AUC: read-out: Area Under Curve AUC; for CL/F: read-out: Clearance CL/F; for half-life: read-out: Half-Life t½ (converted); for MRT: read-out: Mean Residence Time MRT; for Cmax: read-out: Plasma Conc. Cmax
Experimental: Rats were used as test animals. […] The pharmacokinetic behavior of the compounds of the present invention was studied and evaluated in rats.
56 Healthy adult Sprague-Dawley (SD) rats, half male and half female, purchased from SINO-BRITSH SIPPR/BK LAB.
The appropriate amount of test compounds were weighed and mixed with 1.0 mL of dimethyl sulfoxide to prepare a 1.0 mg/mL suspension.
After an overnight fast, SD rats were administered intragastrically at a dose of 10.0 mg/kg and an administration volume of 10 mL/kg.
The plasma samples were stored at −20° C. The rats were fed 2 hours after administration.
Content determination of the test compounds in rat plasma after intragastrically administering at different concentrations: 50 μL of rat plasmas taken at various time points after administration were mixed with 50 μL of internal standard solution and 100 μL of methanol and mixed for 3 minutes by a vortexer. The mixture was centrifuged for 10 minutes at 13,500 rpm. 10 μL of the supernatant was taken from the plasma sample and analyzed by LC-MS/MS.
Pharmacokinetic Parameters of the compounds of the present invention were shown as follows: […]

[5] = system: human erythroid leukemia cell line TF-1; assay: Proliferation inhibition assay on human erythroid leukemia cell line TF-1 mediated by IL-4 (Cell Counting Kit-8); assay type: cell-based; settings: TF-1 cells, 10 ng/mL IL-4, 72 hours
From the text: The following in vitro assay is to determine the activity of the compounds of the present invention for inhibiting the proliferation of human erythroid leukemia cell line TF-1.
The activity is represented by the IC50 value, which can not only reflect the activity of a test compound for inhibiting JAK2 and JAK3 kinase, but can also reflect the selectivity of a test compound for JAK2 and JAK3 kinase.
The general procedures of the assay are given as follows: first, the TF-1 cells (purchased from ATCC, Catalog number: CRL 2003) were seeded in a 96-well cell culture plate at a suitable cell concentration (8000 cells/mL medium), and 10 ng/mL IL-4 (Invitrogen, Catalog Number: PHC0044) were added to each well. Then 10× serial concentration gradient of test compounds solutions (10000, 1000, 100, 10, 1 and 0.1 nM) were prepared, and then the 10× compound solutions prepared above were added to the 96-well cell culture plate containing IL-4. After the cell plates were cultured continuously for 72 hours, the activity of the test compounds for inhibiting the cell proliferation was determined by using a Cell Counting Kit-8 (purchased from Dojindo, Catalog Number: CK04). IC50 values were calculated from the data of the inhibition rates at various concentrations of the test compounds.
The biological activity of the compounds of the present invention was tested by using the assay described above.

JAK3 kinase, sequence (P52333 whole entry): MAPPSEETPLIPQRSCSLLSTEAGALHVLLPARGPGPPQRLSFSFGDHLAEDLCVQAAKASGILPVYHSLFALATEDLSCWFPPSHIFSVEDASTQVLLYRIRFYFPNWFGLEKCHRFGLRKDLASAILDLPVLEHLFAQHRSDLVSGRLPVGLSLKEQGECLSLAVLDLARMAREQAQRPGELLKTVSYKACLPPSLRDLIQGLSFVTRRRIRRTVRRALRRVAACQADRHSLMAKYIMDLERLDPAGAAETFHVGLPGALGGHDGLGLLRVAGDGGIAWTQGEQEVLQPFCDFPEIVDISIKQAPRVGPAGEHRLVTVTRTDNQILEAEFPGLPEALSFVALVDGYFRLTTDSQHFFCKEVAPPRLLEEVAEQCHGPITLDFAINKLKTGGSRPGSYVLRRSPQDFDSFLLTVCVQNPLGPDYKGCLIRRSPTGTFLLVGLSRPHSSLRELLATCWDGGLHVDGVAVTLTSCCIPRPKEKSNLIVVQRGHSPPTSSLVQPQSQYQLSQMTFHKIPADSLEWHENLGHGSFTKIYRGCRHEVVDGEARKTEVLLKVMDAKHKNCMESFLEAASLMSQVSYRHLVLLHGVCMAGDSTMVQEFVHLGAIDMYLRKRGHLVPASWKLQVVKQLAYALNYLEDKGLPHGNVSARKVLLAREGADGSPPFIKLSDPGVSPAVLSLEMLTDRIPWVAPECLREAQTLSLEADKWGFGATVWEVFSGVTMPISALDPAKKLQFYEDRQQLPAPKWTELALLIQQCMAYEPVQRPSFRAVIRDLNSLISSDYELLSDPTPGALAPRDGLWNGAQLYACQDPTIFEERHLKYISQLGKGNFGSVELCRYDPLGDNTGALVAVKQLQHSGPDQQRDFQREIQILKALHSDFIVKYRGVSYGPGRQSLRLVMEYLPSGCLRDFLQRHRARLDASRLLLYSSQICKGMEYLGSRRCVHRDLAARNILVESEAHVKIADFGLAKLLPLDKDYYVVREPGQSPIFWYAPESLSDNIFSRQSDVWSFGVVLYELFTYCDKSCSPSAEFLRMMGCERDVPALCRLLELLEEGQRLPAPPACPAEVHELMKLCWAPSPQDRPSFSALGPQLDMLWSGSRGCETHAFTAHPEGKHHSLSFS
JAK2 kinase, sequence (O60674 whole entry): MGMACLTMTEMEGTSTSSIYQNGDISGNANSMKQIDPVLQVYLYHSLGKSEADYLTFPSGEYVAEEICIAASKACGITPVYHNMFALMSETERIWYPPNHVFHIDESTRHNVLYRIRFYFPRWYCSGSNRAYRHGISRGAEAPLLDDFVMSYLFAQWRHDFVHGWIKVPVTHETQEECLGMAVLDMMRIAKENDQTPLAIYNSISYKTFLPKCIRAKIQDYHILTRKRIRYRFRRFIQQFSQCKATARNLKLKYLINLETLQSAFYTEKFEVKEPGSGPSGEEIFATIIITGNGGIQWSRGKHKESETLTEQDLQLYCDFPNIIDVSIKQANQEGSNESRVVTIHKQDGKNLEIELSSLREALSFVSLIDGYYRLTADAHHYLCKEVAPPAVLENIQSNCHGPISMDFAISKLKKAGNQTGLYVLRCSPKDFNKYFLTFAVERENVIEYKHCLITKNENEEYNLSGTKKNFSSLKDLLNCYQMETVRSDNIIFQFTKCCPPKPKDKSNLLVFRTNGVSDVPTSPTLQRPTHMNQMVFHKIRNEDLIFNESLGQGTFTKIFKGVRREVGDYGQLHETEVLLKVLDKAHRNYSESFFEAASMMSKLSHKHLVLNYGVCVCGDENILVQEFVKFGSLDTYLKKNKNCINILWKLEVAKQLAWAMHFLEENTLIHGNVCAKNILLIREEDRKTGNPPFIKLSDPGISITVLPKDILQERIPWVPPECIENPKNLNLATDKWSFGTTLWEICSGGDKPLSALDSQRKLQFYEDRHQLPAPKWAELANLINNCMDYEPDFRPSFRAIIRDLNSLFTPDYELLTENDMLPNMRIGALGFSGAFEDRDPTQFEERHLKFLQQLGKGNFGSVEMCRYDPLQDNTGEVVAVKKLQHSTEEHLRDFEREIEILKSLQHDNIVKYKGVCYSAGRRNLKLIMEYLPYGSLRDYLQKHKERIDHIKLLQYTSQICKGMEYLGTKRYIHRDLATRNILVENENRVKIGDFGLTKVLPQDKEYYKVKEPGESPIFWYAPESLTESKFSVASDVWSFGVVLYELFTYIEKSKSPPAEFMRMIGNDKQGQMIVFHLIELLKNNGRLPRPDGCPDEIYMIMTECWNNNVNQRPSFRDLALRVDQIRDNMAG
JAK1 kinase, sequence (P23458 whole entry): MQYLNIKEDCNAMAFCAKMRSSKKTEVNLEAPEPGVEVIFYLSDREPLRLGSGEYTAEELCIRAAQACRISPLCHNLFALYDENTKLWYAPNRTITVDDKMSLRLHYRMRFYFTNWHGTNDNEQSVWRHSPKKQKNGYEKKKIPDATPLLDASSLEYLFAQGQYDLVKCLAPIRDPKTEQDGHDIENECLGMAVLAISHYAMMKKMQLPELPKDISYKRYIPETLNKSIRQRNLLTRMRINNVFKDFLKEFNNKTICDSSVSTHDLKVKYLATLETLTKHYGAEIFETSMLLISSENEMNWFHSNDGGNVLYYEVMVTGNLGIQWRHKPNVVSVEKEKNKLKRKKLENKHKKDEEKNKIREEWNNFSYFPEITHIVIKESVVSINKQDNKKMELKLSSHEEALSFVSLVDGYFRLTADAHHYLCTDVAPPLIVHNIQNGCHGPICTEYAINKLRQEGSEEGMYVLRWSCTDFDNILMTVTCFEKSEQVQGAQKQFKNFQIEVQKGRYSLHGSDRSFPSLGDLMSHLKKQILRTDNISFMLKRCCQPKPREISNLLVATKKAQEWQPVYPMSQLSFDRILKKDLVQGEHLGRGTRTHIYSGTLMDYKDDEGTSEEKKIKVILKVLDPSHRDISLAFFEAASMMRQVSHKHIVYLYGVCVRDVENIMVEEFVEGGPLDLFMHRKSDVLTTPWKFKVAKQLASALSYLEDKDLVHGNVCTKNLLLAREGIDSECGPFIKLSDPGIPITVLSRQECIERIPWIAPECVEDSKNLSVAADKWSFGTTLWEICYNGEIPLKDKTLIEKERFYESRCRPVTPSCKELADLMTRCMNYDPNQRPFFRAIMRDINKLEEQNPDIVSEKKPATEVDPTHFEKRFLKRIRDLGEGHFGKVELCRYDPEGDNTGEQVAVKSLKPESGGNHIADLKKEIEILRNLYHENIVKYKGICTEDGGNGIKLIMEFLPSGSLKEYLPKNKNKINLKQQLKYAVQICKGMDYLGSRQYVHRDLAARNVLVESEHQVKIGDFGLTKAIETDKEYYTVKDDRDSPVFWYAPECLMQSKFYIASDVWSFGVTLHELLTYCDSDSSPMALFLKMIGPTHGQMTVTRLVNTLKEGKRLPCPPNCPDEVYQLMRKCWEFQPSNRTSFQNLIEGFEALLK

With `CN(c1ncnc2[nH]ccc12)[C@H]1C[C@@H]2CN(C(=O)CO)C[C@@H]2C1` [Example 6, 2-Hydroxy-1-((3aR,5S,6aS)-5-(methyl(7H-pyrrolo[2,3-d]pyrimidin-4-yl)amino)hexahydrocyclopenta[c]pyrrol-2(1H)-yl)ethanone] the IC50 [1] was 11 nM, the IC50 [2] was 45 nM and the IC50 [3] was 5 nM. The Vd/F [4] was 34.5 ± 21 L/kg, the AUC [4] was 2210 ± 1470 ng·h/mL and the CL/F [4] was 110 ± 71 mL/min/kg. The half-life [4] was 4.01 ± 1.52 h, the MRT [4] was 2.19 ± 0.6 h and the Cmax [4] was 1230 ± 549 ng/mL.

Work on `CN(c1ncnc2[nH]ccc12)[C@H]1C[C@@H]2CN(C(=O)CCC#N)C[C@@H]2C1` [Example 22, 4-((3aR,5S,6aS)-5-(Methyl(7H-pyrrolo[2,3-d]pyrimidin-4-yl)amino)hexahydrocyclopenta[c]pyrrol-2(1H)-yl)-4-oxobutanenitrile] yielded an IC50 [2] of 54 nM, an IC50 [3] of 16 nM and a Vd/F [4] of 9.39 ± 8.06 L/kg. For the same compound, the AUC [4] was 6990 ± 4560 ng·h/mL, the CL/F [4] was 34.6 ± 22.7 mL/min/kg and the half-life [4] was 2.87 ± 0.7 h. It also gave an MRT [4] of 2.6 ± 0.1 h and a Cmax [4] of 2960 ± 2110 ng/mL.

In the case of `COc1nsc(NC(=O)N2C[C@H]3C[C@H](N(C)c4ncnc5[nH]ccc45)C[C@H]3C2)n1` [Example 34, (3aR,5S,6aS)—N-(3-Methoxy-1,2,4-thiadiazol-5-yl)-5-(methyl(7H-pyrrolo[2,3-d]pyrimidin-4-yl)amino)hexahydrocyclopenta[c]pyrrole-2(1H)-carboxamide], the IC50 [2] is reported as 5 nM, the IC50 [3] is reported as 2 nM and the Vd/F [4] is reported as 2.76 ± 1.53 L/kg. For the same compound, the AUC [4] was 14900 ± 10400 ng·h/mL, the CL/F [4] was 18.3 ± 14.2 mL/min/kg and the half-life [4] was 2.1 ± 0.73 h. The MRT [4] was 3.81 ± 0.82 h and the Cmax [4] was 2670 ± 1450 ng/mL.

`CC(=O)N1CC[C@H]2CC(N(C)c3ncnc4[nH]ccc34)C[C@H]2C1` (stereo partly drawn) [Example 35, 1-((4aS,7aR)-6-(Methyl(7H-pyrrolo[2,3-d]pyrimidin-4-yl)amino)hexahydro-1H-cyclopenta[c]pyridin-2(3H,4H,4aH,5H,6H,7H,7aH)-yl)ethanone] showed an IC50 [2] of 16 nM, an IC50 [3] of 3 nM and a Vd/F [4] of 10.4 ± 2.04 L/kg. It also gave an AUC [4] of 3080 ± 1340 ng·h/mL, a CL/F [4] of 63.3 ± 28 mL/min/kg and a half-life [4] of 2.11 ± 0.67 h. It also gave an MRT [4] of 3.02 ± 1.33 h and a Cmax [4] of 1220 ± 244 ng/mL.

`CN(c1ncnc2[nH]ccc12)[C@H]1C[C@H]2CNC(=O)C[C@H]2C1` [Example 40, (4aR,6R,7aR)-6-(Methyl(7H-pyrrolo[2,3-d]pyrimidin-4-yl)amino) hexahydro-1H-cyclopenta[c]pyridin-3(2H)-one] showed an IC50 [2] of 23 nM, a Vd/F [4] of 6.99 ± 3.39 L/kg and an AUC [4] of 5230 ± 1170 ng·h/mL. The CL/F [4] was 33.2 ± 7.7 mL/min/kg, the half-life [4] was 2.72 ± 1.82 h and the Cmax [4] was 1520 ± 317 ng/mL. For the same compound, the IC50 [5] was 399 nM.

In the case of `CCc1nsc(NC(=O)N2C[C@H]3C[C@H](N(C)c4ncnc5[nH]ccc45)C[C@H]3C2)n1` [Example 48, (3aR,5S,6aS)—N-(3-Ethyl-1,2,4-thiadiazol-5-yl)-5-(methyl(7H-pyrrolo[2,3-d]pyrimidin-4-yl)amino)hexahydrocyclopenta[c]pyrrole-2(1H)-carboxamide], the IC50 [2] is reported as 31 nM, the IC50 [3] is reported as 1 nM and the Vd/F [4] is reported as 7.2 ± 8.11 L/kg. The AUC [4] was 9620 ± 7910 ng·h/mL, the CL/F [4] was 31.9 ± 26.9 mL/min/kg and the half-life [4] was 2.43 ± 0.75 h. It also gave an MRT [4] of 3.4 ± 0.91 h and a Cmax [4] of 2070 ± 1470 ng/mL.

In the case of `CN(c1ncnc2[nH]ccc12)[C@H]1C[C@@H]2CN(C(=O)Nc3nc(C4CC4)ns3)C[C@@H]2C1` [Example 49, (3aR,5S,6aS)—N-(3-Cyclopropyl-1,2,4-thiadiazol-5-yl)-5-(methyl(7H-pyrrolo[2,3-d]pyrimidin-4-yl)amino)hexahydrocyclopenta[c]pyrrole-2(1H)-carboxamide], the IC50 [2] is reported as 14 nM, the IC50 [3] is reported as 0.2 nM and the Vd/F [4] is reported as 18.1 ± 20.7 L/kg. For the same compound, the AUC [4] was 6000 ± 4740 ng·h/mL, the CL/F [4] was 46.1 ± 35.6 mL/min/kg and the Cmax [4] was 1060 ± 677 ng/mL.

`CN(c1ncnc2[nH]ccc12)[C@H]1C[C@@H]2CN(C(=O)Nc3nc(CO)ns3)C[C@@H]2C1` [Example 50, (3aR,5S,6aS)—N-(3-(Hydroxymethyl)-1,2,4-thiadiazol-5-yl)-5-(methyl(7H-pyrrolo[2,3-d]pyrimidin-4-yl)amino)hexahydrocyclopenta[c]pyrrole-2(1H)-carboxamide] showed an IC50 [1] of 201 nM, an IC50 [2] of 7 nM and an IC50 [3] of 0.5 nM.

Compound `CN(c1ncnc2[nH]ccc12)[C@H]1C[C@@H]2CN(CC(F)(F)F)C[C@@H]2C1` [Example 56, N-methyl-N-((3aR,5S,6aS)-2-(2,2,2-trifluoroethyl)octahydrocyclopenta[c]pyrrol-5-yl)-7H-pyrrolo[2,3-d]pyrimidin-4-amine] has an IC50 [1] of 75 nM, an IC50 [2] of 32 nM and an IC50 [3] of 11 nM.

For `CN(c1ncnc2[nH]ccc12)[C@@H]1C[C@@H]2CN(CC#N)C[C@@H]2C1` [Example 69, 2-((3aR,5R,6aS)-5-(methyl(7H-pyrrolo[2,3-d]pyrimidin-4-yl)amino)hexahydrocyclopenta[c]pyrrol-2(1H)-yl)acetonitrile], the IC50 [1] was 20 nM, the IC50 [2] was 4 nM and the IC50 [3] was 5 nM.

`CN(c1ncnc2[nH]ccc12)[C@H]1C[C@@H]2CN(C(=O)C(O)C(F)(F)F)C[C@@H]2C1` (stereo partly drawn) [Example 97, 3,3,3-trifluoro-2-hydroxy-1-((3aR,5S,6aS)-5-(methyl(7H-pyrrolo[2,3-d]pyrimidin-4-yl)amino)hexahydrocyclopenta[c]pyrrol-2(1H)-yl)propan-1-one] gave an IC50 [1] of 110 nM.

`CN(c1ncnc2[nH]ccc12)[C@H]1C[C@@H]2CN(C(=O)OCC(F)(F)F)C[C@@H]2C1` [Example 111, (3aR,5S,6aS)-2,2,2-trifluoroethyl 5-(methyl(7H-pyrrolo[2,3-d]pyrimidin-4-yl)amino)hexahydrocyclopenta[c]pyrrole-2(1H)-carboxylate] gave an IC50 [1] of 101 nM, an IC50 [2] of 146 nM and an IC50 [3] of 96 nM.

Work on `CN(c1ncnc2[nH]cc(F)c12)[C@H]1C[C@@H]2CN(C(=O)CO)C[C@@H]2C1` [Example 128, 1-((3aR,5S,6aS)-5-((5-fluoro-7H-pyrrolo[2,3-d]pyrimidin-4-yl)(methyl)amino)hexahydrocyclopenta[c]pyrrol-2(1H)-yl)-2-hydroxyethanone] yielded an IC50 [1] of 4 nM, an IC50 [3] of 13 nM and a Vd/F [4] of 11.4 ± 4.15 L/kg. The AUC [4] was 2320 ± 1030 ng·h/mL, the CL/F [4] was 84.3 ± 37.8 mL/min/kg and the half-life [4] was 1.62 ± 0.28 h. For the same compound, the Cmax [4] was 1420 ± 150 ng/mL.

With `CN(c1ncnc2[nH]c(F)cc12)[C@H]1C[C@@H]2CN(C(=O)CO)C[C@@H]2C1` [Example 129, 1-((3aR,5S,6aS)-5-((6-fluoro-7H-pyrrolo[2,3-d]pyrimidin-4-yl)(methyl)amino)hexahydrocyclopenta[c]pyrrol-2(1H)-yl)-2-hydroxyethanone] the IC50 [1] was 17 nM and the IC50 [3] was 36 nM.

With `CN(C[C@H]1[C@@H]2CN(C(=O)OC(C)(C)C)C[C@@H]21)c1ncnc2[nH]ccc12` [Example 133, (1R,5S,6S)-tert-butyl 6-((methyl(7H-pyrrolo[2,3-d]pyrimidin-4-yl)amino)methyl)-3-azabicyclo[3.1.0]hexane-3-carboxylate] the IC50 [1] was 90 nM.

Work on `CN(c1ncnc2[nH]ccc12)[C@H]1C[C@H]2CNC(=O)C[C@H]2C1` [Example 147, (4aR,6R,7aR)-6-(methyl(7H-pyrrolo[2,3-d]pyrimidin-4-yl)amino)hexahydro-1H-cyclopenta[c]pyridin-3(2H)-one] yielded an IC50 [2] of 5 nM and an IC50 [5] of 15 nM.

Work on `CC(C)C(=O)N1CC[C@H]2C[C@@H](N(C)c3ncnc4[nH]ccc34)C[C@H]2C1` [Example 151, 2-methyl-1-((4aS,6R,7aR)-6-(methyl(7H-pyrrolo[2,3-d]pyrimidin-4-yl)amino)hexahydro-1H-cyclopenta[c]pyridin-2(3H)-yl)propan-1-one] yielded an IC50 [1] of 203 nM, an IC50 [2] of 127 nM and an IC50 [3] of 106 nM.
